According to ChEMBL document CHEMBL1201862, “PubChem BioAssay data set” (2004):
pIC50: −log10 of the molar value. The source made the active and inactive calls.

Tests used:
[1] = biological target: Phospholipase A2 (Homo sapiens, UniProt P04054); test: PLA2 enzyme inhibitors, dose response, counter-screen for ATG4B inhibitor project, biochemical, set 2 (AID 588586); assay type: functional
[2] = biological target: T1, Cysteine protease ATG4B (Homo sapiens, UniProt Q9Y4P1); test: ATG4B protease inhibitors, dose response, biochemical, fluorescence, set 2 (AID 588584); assay type: functional
T1 sequence (Q9Y4P1 whole entry): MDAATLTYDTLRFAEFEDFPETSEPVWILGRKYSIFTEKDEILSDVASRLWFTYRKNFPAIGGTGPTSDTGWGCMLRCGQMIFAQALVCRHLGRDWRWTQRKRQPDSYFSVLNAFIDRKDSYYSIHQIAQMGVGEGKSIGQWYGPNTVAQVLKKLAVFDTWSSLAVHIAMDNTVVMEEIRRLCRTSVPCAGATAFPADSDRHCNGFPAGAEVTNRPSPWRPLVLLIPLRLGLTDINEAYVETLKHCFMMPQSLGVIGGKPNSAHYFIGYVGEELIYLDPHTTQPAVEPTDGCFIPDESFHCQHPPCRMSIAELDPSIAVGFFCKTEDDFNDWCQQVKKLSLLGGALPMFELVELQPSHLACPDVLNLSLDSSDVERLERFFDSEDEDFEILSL

[3] = HEp-2 cell cytotoxicity, dose response, cytotoxicity control for RSV inhibitor project, HTS (AID 2410); assay type: functional; conditions: human respiratory syncytial virus
[4] = biological target: Ion channel NompC (Danio rerio, UniProt Q7T1G6); test: Dose response cell-based high-throughput screening assay for agonists of the transient receptor potential channel N1 (TRPN1). [Related pubchem assays (depositor defined):AID1424, AID1448]; assay type: functional
[5] = biological target: T2, Mucolipin-3 (Homo sapiens, UniProt Q8TDD5); test: Fluorescence counterscreen assay for […] agonists: dose response cell-based high-throughput screening assay to identify agonists of the transient receptor potential channel ML3 (TRPML3). [Related pubchem assays: 1424, 1448 ]; assay type: functional
T2 sequence (Q8TDD5 whole entry): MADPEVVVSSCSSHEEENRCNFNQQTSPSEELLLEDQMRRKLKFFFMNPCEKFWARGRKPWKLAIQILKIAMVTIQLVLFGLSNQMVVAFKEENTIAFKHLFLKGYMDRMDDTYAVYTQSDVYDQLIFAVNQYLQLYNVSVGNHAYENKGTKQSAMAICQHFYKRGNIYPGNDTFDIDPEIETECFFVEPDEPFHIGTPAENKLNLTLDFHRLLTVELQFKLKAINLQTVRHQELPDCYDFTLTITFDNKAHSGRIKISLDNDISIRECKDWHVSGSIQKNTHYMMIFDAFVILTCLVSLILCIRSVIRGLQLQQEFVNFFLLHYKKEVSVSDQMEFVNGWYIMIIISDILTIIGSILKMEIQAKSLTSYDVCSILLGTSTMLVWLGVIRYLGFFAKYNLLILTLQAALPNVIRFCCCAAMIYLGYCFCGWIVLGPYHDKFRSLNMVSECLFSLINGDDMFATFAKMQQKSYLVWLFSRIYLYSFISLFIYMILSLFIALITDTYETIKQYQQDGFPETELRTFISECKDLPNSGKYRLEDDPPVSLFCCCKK

[6] = biological target: T3, Delta-type opioid receptor (Homo sapiens, UniProt P41143); test: HTS Image-Based Screen for Agonists of the DOR Receptor. [Related pubchem assays (depositor defined):AID1777, AID1786, AID2133]; assay type: functional
[7] = biological target: T4, Kappa-type opioid receptor (Homo sapiens, UniProt P41145); assay type: functional
[8] = biological target: T5, Mu-type opioid receptor (Homo sapiens, UniProt P35372); test: HTS Image-Based Screen for Agonists of the MOR Receptor. [Related pubchem assays (depositor defined):AID1777, AID1785, AID1786, AID2133]; assay type: functional
[9] = biological target: Beta-galactosidase (Escherichia coli, UniProt Q8VNN2); assay type: functional
[10] = biological target: T3, Delta-type opioid receptor; test: HTS Image-Based Screen for Antagonists of the DOR Receptor. [Related pubchem assays (depositor defined):AID1777, AID1785, AID1786, AID2133]; assay type: functional
[11] = biological target: T4, Kappa-type opioid receptor; assay type: functional; remark: listed apart in the source
[12] = biological target: T6, Cannabinoid receptor 2 (Homo sapiens, UniProt P34972); test: SAR analysis of agonists of the Cannabinoid Receptor 2 using an Image-Based Assay - Set 3. [Related pubchem assays (depositor defined):AID2013, AID2026]; assay type: functional
[13] = biological target: T6, Cannabinoid receptor 2; test: SAR analysis of antagonists of the Cannabinoid Receptor 2 using an Image-Based Assay - Set 3. [Related pubchem assays (depositor defined):AID2013, AID2026]; assay type: functional
[14] = biological target: T7, Probable nicotinate-nucleotide adenylyltransferase (Staphylococcus aureus (strain N315), UniProt P65502); assay type: functional, Staphylococcus aureus subsp. aureus N315; conditions: read-out: IC50_Mean;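 on IC50 Mean: confirmatory dose-response retesting of NadD inhibitor hits first found in an ultra-high-throughput screen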
[15] = biological target: T8, Cannabinoid receptor 1 (Homo sapiens, UniProt P21554); test: SAR analysis of antagonists of the Cannabinoid Receptor 1 using an Image-Based Assay - Set 4. [Related pubchem assays (depositor defined):AID2013, AID2026]; assay type: functional
[16] = biological target: T8, Cannabinoid receptor 1; test: SAR analysis of agonists of the Cannabinoid Receptor 1 using an Image-Based Assay - Set 4. [Related pubchem assays (depositor defined):AID2013, AID2026]; assay type: functional
[17] = biological target: T9, G-protein coupled receptor 35 (Homo sapiens, UniProt Q9HC97); test: SAR analysis of Antagonists of the GPR35 Receptor using an Image-Based Assay - Set 6. [Related pubchem assays (depositor defined):AID2013, AID2026]; assay type: functional
[18] = biological target: G-protein coupled receptor 55 (Homo sapiens, UniProt Q9Y2T6); test: SAR Analysis of Selective Antagonists of GPR55 using an Image-Based Assay - Set 4. [Related pubchem assays (depositor defined):AID2013, AID2026]; assay type: functional;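 further: antagonism of response to 5 µM lysophosphatidylinositol agonist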
[19] = biological target: T7, Probable nicotinate-nucleotide adenylyltransferase; assay type: functional, Staphylococcus aureus subsp. aureus N315
[20] = biological target: T9, G-protein coupled receptor 35; test: SAR analysis of Agonists of the GPR35 Receptor using an Image-Based Assay - Set 4. [Related pubchem assays (depositor defined):AID2013, AID2026]; assay type: functional
[21] = biological target: T10, Tyrosine-protein phosphatase non-receptor type 22 (Homo sapiens, UniProt Q9Y2R2); assay type: functional
T10 sequence (Q9Y2R2 whole entry): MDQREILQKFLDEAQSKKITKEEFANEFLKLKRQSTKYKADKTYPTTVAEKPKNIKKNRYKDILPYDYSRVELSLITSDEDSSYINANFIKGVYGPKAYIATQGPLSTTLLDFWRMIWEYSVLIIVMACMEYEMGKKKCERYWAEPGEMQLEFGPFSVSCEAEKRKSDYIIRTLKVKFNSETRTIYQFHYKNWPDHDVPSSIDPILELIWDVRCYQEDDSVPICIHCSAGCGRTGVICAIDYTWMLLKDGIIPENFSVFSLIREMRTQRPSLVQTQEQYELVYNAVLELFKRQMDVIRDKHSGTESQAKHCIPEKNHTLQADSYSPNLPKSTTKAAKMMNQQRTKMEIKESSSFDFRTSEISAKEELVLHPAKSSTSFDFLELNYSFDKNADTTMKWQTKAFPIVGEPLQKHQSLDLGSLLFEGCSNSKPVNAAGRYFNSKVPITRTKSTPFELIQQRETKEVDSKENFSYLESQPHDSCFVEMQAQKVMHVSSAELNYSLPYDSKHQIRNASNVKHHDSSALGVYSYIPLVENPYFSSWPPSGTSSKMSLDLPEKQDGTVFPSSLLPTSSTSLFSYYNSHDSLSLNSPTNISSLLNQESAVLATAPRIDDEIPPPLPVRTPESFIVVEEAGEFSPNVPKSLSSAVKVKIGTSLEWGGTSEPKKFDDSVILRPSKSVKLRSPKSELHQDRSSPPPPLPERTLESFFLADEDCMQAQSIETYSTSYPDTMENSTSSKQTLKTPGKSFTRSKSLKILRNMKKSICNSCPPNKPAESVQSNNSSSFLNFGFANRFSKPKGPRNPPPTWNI

[22] = biological target: T10, Tyrosine-protein phosphatase non-receptor type 22; assay type: functional; remark: listed apart in the source
[23] = biological target: T11, Tyrosine-protein phosphatase non-receptor type 7 (Homo sapiens, UniProt P35236); assay type: functional
T11 sequence (P35236 whole entry): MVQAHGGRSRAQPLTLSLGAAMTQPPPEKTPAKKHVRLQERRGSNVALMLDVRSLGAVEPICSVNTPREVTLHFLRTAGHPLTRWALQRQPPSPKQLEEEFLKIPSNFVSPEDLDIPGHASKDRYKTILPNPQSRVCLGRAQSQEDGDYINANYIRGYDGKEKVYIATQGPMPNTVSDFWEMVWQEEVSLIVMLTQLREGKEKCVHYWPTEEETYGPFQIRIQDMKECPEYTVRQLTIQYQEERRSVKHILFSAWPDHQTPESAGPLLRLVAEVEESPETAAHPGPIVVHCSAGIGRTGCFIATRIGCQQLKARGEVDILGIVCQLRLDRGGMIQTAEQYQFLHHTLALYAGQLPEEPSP

[24] = microbe, parasite or virus in culture; assay type: functional; conditions: Mycobacterium tuberculosis
[25] = cytotoxicity toward NIH3T3 fibroblasts, dose response, counter-screen, cell-based, ATP luminescence, mouse fibroblasts (AID 2010); assay type: functional;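 further: cells exposed to compound for about 90 hours before reading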
[26] = test system: BJ; test: cytotoxicity toward BJ-TERT fibroblasts, dose response, cell-based, RAS-independent, luminescence (AID 1933); assay type: functional; conditions: Homo sapiens
[27] = test system: BJ; test: cytotoxicity toward BJ-TERT-LT-ST fibroblasts, dose response, cell-based, RAS-independent, luminescence (AID 1935); assay type: functional; conditions: Homo sapiens;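 further: BJ fibroblasts immortalized with TERT plus LT and ST oncogenes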
[28] = inhibitors of intracellular T. cruzi replication, confirmation, NIH3T3 host cells, beta-gal luminescence (AID 2044); assay type: functional, cell-based;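 further: intracellular parasites grown in NIH/3T3 mouse fibroblasts as host cells; luminescent beta-galactosidase reporter signal from transgenic T. cruzi replicating inside host cells; inhibitors lower the luminescence signal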
[29] = test system: BJ; test: cells; assay type: functional, cell-based; conditions: Homo sapiens
[30] = cytotoxicity toward DRD oncogenic fibroblasts, dose response, cell-based, non-viral oncogenic, luminescence (AID 1934); assay type: functional; conditions: Homo sapiens
[31] = biological target: 5-hydroxytryptamine receptor 5A (Homo sapiens, UniProt P47898); test: Counterscreen for agonists of OPRM1-OPRD1 heterodimerization: luminescence-based cell-based high throughput dose response assay to identify agonists of 5-hydroxytryptamine (serotonin) 5A receptor (HTR5A). [Related pubchem assays (depositor defined):AID504326, AID504355, AID504692, AID504904, AID504905]; assay type: functional
[32] = biological target: T5, Mu-type opioid receptor; test: (§1) Counterscreen for agonists of heterodimerization of the mu 1 (OPRM1) and delta 1 (OPRD1) opioid receptors: Luminescence-based cell-based high throughput dose response assay to identify agonists of OPRM1 homodimerization.; assay type: functional
[33] = biological target: T3, Delta-type opioid receptor; test: as §1, with “of OPRD1” for “of OPRM1”, “homodimerization. [Related pubchem assays (depositor defined):AID504326, AID504355, AID504692, AID504904, AID504905]” for “homodimerization.”; assay type: functional

T4 sequence (P41145 whole entry): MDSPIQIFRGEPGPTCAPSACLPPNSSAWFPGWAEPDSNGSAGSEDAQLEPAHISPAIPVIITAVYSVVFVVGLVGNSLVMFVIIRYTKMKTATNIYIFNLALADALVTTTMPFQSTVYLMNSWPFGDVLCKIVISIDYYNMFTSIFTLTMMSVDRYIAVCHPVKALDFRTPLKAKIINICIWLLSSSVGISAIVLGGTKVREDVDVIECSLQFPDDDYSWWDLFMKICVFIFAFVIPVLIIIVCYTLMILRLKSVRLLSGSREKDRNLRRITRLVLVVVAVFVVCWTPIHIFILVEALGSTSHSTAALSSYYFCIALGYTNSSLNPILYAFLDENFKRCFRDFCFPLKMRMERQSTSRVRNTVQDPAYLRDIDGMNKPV
T3 sequence (P41143 whole entry): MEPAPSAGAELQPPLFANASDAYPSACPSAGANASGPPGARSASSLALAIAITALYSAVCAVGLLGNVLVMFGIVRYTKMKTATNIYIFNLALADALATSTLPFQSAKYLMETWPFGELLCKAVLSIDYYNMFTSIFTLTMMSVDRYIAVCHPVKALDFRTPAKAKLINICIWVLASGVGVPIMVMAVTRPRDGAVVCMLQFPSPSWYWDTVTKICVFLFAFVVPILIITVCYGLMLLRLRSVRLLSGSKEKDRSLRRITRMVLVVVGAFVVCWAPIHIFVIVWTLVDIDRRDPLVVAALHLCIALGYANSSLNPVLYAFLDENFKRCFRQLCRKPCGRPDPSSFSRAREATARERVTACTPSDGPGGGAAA
T8 sequence (P21554 whole entry): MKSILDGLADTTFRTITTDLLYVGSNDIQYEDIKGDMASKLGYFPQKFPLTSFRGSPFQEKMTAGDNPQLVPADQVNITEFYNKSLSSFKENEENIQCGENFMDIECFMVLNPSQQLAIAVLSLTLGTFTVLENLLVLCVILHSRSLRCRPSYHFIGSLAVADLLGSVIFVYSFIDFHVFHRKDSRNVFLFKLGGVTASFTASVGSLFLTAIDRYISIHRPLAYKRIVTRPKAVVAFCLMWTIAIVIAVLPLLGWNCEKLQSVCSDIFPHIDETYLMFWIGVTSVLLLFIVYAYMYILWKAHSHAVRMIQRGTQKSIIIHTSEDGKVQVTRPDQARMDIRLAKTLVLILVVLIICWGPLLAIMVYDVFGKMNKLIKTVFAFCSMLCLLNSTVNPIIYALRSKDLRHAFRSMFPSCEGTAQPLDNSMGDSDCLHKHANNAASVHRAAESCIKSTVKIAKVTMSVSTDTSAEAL
T9 sequence (Q9HC97 whole entry): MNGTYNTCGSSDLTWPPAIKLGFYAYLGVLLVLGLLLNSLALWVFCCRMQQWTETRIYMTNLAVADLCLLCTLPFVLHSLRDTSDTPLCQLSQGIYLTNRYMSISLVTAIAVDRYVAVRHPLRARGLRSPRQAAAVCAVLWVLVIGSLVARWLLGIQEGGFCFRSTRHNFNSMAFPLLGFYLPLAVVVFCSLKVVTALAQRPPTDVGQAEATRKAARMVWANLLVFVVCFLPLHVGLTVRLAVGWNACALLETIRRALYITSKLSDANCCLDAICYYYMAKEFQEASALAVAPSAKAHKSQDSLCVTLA
T5 sequence (P35372 whole entry): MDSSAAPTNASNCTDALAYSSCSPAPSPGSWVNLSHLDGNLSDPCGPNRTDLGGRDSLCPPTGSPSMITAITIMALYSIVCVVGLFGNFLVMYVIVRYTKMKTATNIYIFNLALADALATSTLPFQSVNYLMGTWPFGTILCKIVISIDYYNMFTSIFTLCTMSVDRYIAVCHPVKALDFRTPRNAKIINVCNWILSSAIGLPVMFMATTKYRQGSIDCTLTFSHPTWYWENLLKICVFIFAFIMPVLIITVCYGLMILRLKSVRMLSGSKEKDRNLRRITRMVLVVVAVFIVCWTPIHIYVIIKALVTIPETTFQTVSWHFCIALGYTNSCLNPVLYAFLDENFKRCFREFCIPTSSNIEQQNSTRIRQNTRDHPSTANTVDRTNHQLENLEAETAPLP
T6 sequence (P34972 whole entry): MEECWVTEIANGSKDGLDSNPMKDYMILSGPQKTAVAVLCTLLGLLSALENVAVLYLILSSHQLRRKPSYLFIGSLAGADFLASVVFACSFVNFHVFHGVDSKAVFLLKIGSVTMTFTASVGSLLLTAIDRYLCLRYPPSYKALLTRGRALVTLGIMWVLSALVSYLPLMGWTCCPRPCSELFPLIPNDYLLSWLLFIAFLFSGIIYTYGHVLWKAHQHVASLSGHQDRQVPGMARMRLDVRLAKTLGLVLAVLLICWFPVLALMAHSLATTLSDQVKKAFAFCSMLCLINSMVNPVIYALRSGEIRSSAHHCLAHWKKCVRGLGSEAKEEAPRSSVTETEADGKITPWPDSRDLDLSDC
Sequence of Ion channel NompC (Q7T1G6 whole entry): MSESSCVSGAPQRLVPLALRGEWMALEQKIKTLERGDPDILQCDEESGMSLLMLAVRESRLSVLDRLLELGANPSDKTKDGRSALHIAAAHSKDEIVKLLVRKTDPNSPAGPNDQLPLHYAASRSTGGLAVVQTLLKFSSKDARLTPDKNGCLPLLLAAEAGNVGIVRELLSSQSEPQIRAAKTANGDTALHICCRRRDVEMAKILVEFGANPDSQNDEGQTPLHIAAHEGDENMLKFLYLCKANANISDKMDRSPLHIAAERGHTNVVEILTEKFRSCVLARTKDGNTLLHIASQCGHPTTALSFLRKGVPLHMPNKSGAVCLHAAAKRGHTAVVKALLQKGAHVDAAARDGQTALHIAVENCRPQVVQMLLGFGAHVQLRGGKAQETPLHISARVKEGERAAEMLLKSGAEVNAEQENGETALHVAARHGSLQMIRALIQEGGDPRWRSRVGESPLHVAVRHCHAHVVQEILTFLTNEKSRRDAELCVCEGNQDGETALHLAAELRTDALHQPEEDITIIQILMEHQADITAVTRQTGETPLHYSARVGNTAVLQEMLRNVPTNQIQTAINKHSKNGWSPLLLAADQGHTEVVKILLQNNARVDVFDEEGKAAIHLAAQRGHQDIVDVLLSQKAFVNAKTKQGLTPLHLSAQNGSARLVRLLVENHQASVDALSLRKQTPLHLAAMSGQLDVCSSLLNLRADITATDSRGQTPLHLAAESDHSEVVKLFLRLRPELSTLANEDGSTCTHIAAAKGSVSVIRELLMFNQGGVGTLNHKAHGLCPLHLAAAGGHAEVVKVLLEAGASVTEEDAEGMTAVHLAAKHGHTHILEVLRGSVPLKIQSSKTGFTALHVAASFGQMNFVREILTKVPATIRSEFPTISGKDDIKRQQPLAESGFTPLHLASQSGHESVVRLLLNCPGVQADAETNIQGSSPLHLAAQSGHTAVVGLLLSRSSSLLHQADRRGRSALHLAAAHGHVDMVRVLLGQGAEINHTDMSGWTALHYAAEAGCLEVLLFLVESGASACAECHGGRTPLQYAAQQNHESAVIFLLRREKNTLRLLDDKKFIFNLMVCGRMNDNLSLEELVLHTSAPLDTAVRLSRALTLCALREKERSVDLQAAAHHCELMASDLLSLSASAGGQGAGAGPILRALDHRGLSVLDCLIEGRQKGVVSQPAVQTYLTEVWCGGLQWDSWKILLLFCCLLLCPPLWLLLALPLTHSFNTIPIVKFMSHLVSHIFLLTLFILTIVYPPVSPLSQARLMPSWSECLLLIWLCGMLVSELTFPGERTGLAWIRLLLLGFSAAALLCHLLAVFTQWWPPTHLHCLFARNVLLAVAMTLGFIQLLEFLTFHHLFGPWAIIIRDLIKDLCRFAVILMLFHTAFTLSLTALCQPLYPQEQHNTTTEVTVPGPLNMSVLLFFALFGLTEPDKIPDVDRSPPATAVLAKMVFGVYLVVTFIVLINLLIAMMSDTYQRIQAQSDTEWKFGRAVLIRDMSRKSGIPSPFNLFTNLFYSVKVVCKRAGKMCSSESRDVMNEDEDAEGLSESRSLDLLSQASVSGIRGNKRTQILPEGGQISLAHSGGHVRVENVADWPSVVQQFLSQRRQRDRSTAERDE
Sequence of Beta-galactosidase (Q8VNN2 whole entry): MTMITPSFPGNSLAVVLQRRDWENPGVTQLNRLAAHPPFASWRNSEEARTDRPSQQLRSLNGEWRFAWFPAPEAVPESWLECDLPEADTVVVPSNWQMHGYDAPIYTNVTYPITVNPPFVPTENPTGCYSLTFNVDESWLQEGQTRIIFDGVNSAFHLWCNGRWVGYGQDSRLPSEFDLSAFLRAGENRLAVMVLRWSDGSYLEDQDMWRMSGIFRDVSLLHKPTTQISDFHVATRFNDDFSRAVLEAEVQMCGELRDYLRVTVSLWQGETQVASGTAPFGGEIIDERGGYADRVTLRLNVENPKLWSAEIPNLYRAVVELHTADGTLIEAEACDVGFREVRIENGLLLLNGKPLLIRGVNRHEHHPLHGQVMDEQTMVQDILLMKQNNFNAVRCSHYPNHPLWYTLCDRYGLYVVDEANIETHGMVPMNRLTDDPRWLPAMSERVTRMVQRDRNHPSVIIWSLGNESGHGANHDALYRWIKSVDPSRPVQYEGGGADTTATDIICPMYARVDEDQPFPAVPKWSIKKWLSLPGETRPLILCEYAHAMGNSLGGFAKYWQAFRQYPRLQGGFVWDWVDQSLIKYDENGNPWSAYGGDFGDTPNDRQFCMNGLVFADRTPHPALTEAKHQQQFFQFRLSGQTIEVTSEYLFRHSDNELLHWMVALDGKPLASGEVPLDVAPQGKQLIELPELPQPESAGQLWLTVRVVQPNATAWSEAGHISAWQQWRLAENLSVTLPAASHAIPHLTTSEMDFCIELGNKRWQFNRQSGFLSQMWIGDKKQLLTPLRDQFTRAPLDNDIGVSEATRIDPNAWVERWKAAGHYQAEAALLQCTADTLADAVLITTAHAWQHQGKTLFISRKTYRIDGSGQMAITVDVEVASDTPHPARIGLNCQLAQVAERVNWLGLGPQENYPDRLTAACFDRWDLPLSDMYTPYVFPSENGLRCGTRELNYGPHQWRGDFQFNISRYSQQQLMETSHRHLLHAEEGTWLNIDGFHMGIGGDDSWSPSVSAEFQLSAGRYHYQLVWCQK

## O=C(C1CCN(c2ncnc3c2nc2n3CCCCC2)CC1)N1CCN(c2cccc(Cl)c2)CC1
[1]
  IC50: 11.1 µM (active)
[2]
  IC50: 22.6 µM (inactive)

## COc1ccccc1CC(=O)Nc1ccc([N+](=O)[O-])cc1O
[3]
  CC50: 27.7 µM (active)
[4]
  EC50: > 29.9 µM (inactive)
[5]
  EC50: > 29.9 µM (not active)

## Cc1ccc(CN2C3CCCC2CC(NC(=O)c2ccc(F)cc2)C3)cc1 (stereo unspecified)
[6]
  EC50: > 32 µM (inactive)
[7]
  IC50: 7.7 µM (active)
[8]
  EC50: > 32 µM (inactive)
[9]
  EC50: > 31.5 µM (inactive)
[10]
  IC50: > 32 µM (inactive)
[11]
  pIC50: 5.43

## O=C(Nc1ccc(S(=O)(=O)Nc2nccs2)cc1)c1cc(-c2ccccc2)nc2ccccc12
[12]
  EC50: > 32 µM (inactive)
[13]
  IC50: > 32 µM (inactive)
[14]
  IC50: 20 µM (active)
[15]
  IC50: 4.77 µM (active)
[16]
  EC50: > 32 µM (inactive)
[17]
  IC50: > 32 µM (inactive)
[18]
  IC50: 5.75 µM (active)
[19]
  IC50: 6.12 µM (active)
[20]
  EC50: > 32 µM (inactive)

## CCOc1ccc2nc(N3C(=O)CNC3=S)sc2c1
[6]
  EC50: > 32 µM (inactive)
[7]
  IC50: 16.4 µM (active)
[8]
  EC50: > 32 µM (inactive)
[9]
  EC50: > 31.5 µM (inactive)
[10]
  IC50: > 32 µM (inactive)
[11]
  pIC50: < 4.49

## CS(=O)(=O)N1CCc2ccc(NC(=O)C3CCCO3)cc2C1 (stereo unspecified)
[21]
  IC50: > 79.4 µM (inactive)
[22]
  IC50: > 79.4 µM (inactive)
[23]
  IC50: > 79.4 µM (inactive)

## CCN(CC)c1ccc(/C=C2\SC(=O)N(C(C)C)C2=O)o1
[24]
  CC50: 38.7 µM (active)
[25]
  EC50: 18.4 µM (active)
[4]
  EC50: > 9.97 µM (inactive)
[26]
  EC50: 11.7 µM (active)
[27]
  EC50: > 75 µM (inconclusive)
[28]
  EC50: 2.09 µM (active)
[29]
  EC50: 20.5 µM (active)
[30]
  EC50: 35.7 µM (active)
[5]
  EC50: > 9.97 µM (not active)

## N=c1c(C(=O)NCCN2CCOCC2)cc2c(=O)n3ccccc3nc2n1C1CCCC1
[12]
  EC50: 8.59 µM (active)
[13]
  IC50: > 32 µM (inactive)
[15]
  IC50: > 32 µM (inactive)
[16]
  EC50: > 32 µM (inactive)
[17]
  IC50: > 32 µM (inactive)
[18]
  IC50: > 32 µM (inactive)
[20]
  EC50: > 32 µM (inactive)

## CN(C)C(CNC(=O)c1cc2ccccc2o1)c1ccco1 (stereo unspecified)
[31]
  EC50: > 92.5 µM (inactive)
[32]
  EC50: > 92.5 µM (inactive)
[33]
  EC50: > 92.5 µM (inactive)

## COC(=O)N/N=C(\C)c1ccc2ccccc2c1OC(F)F
[21]
  IC50: > 79.4 µM (inactive)
[22]
  IC50: > 79.4 µM (inactive)
[23]
  IC50: > 79.4 µM (inactive)
